{"source": "patent US20150037269A1", "about": "“TOPICAL COMPOSITIONS FOR TREATMENT OF EXCESSIVE SWEATING AND METHODS OF USE THEREOF” (GlaxoSmithKline Intellectual Property Development Limited, priority 2013, published 2015)", "key": {"[1]": {"assay": "Clinical study: single radiolabelled topical dose to axilla or palm of healthy male subjects", "format": "in vivo, human", "settings": "for Cmax: male, human, plasma, topical, 3.05 mg", "protocol": "Up to four cohorts were to be enrolled (Cohort A: unoccluded axilla; Cohort B: occluded axilla; Cohort C: unoccluded palm; Cohort D: occluded palm). Six subjects were to be dosed in each cohort and complete the study procedures.\nOn the day of dosing, subjects will receive the study drug applied to the axilla or palm. Each subject will only receive a single dose of study drug which will be applied to the test site and remain on the application site for 8 hours. Serial blood samples will be collected throughout treatment. An interim analysis using simulations will be conducted after each cohort to determine the likelihood of exceeding the safety cover for Cmax or AUC and the likelihood of obtaining quantifiable concentrations sufficient to determine the half-life in the subsequent cohorts."}, "[2]": {"settings": "cited from earlier work"}, "[3]": {"assay": "MALDI imaging of distribution in skin layers", "format": "in vitro ADME, human", "settings": "twenty-four hours after single finite topical dose", "text": "Matrix-assisted laser desorption/ionization (MALDI) has emerged as a powerful and diverse technology for analyzing the spatial distribution of endogenous and exogenous compounds directly from a tissue section. [See Seeley E H, Caprioli R M. MALDI imaging mass spectrometry of human tissue: method challenges and clinical perspectives. Trends Biotechnol. 29(3), 136-143 (2011); and Svatos A. Mass spectrometric imaging of small molecules. Trends Biotechnol. 28(8), 425-434 (2010)]. […] Anal Bioanal Chem. (2013); 405(4):1159-70]. MALDI imaging in human skin tissue sections: focus on various matrices and enzymes."}, "[4]": {"assay": "Population pharmacokinetic model (IV plus dermal occluded axilla data)", "format": "in vivo, human", "text": "Of the drug that was available systemically, 9.70% (66.7%) was absorbed through a zero order process."}, "[5]": {"assay": "Irritation potential of topical solution", "settings": "solution comprising 2.2% w/w"}, "[6]": {"settings": "PopPK, IV and dermal occluded axilla"}}}
{"smiles": "OC(c1ccccc1)(c1ccccc1)C12CC[N+](CCOCc3ccccc3)(CC1)CC2", "note": "[umeclidinium, 4-[hydroxy(diphenyl)methyl]-1-{2-[(phenylmethyl)oxy]ethyl}-1-azoniabicyclo[2.2.2]octane]", "values": [{"measurement": "Cmax", "setting": "[1]; occluded axilla (Cohort B), CV 122%", "value": 7.92, "unit": "pg/mL"}, {"measurement": "Cmax", "setting": "[1]; unoccluded axilla (Cohort A), CV 144%", "value": 2.33, "unit": "pg/mL"}, {"measurement": "samples quantifiable up to", "setting": "[1]; occluded axilla (Cohort B), post dose", "value": "16 to 72", "unit": "h"}, {"measurement": "mean percent dose recovered from the skin surface", "setting": "[1]; occluded axilla (Cohort B), range 69.2%-81.7%", "value": 75.4, "unit": "%"}, {"measurement": "median time to maximum concentration", "setting": "[1]; occluded axilla (Cohort B), range 2 h-24 h", "value": 13, "unit": "h"}, {"measurement": "plasma concentrations", "setting": "[1]; occluded palm (Cohort D)", "value": "no quantifiable plasma concentrations"}, {"measurement": "mean percent dose recovered from the skin surface", "setting": "[1]; occluded palm (Cohort D), range 45.6%-59.9%", "value": 52.5, "unit": "%"}, {"measurement": "mean percent dose recovered from the skin surface", "setting": "[1]; unoccluded axilla (Cohort A), end of 8 hour application, range 77.7-84.1%", "value": 80.6, "unit": "%"}, {"measurement": "quantifiable plasma concentrations up to", "setting": "[1]; unoccluded axilla (Cohort A), one subject, post-dose", "value": "up to 72 hours"}, {"measurement": "median time to maximum plasma concentration", "setting": "[1]; unoccluded axilla (Cohort A), range 12 h-30 h", "value": 13, "unit": "h"}, {"measurement": "tolerability in thorough QT study", "setting": "[2]; 0.5 mg inhaled once daily for 10 days", "value": "well tolerated"}, {"measurement": "tolerability in clinical development program", "setting": "[2]; oral, intravenous and oral inhalation routes", "value": "well tolerated"}, {"measurement": "qualitative distribution in skin layers", "setting": "[3]", "value": "penetrated to the deeper sections of the dermis and accumulated in the area where the sweat glands are present"}, {"measurement": "CL2 Intercompartmental Clearance, Mean (RSE %)", "setting": "[4]; [6]", "value": "39376 (26.0%) mL/h"}, {"measurement": "CL Elimination clearance, Mean (RSE %)", "setting": "[4]; [6]", "value": "45241 (23.6%) mL/h"}, {"measurement": "F1 Fraction of the bioavailable drug absorbed through a zero order process, Mean (RSE %)", "setting": "[4]; [6]", "value": "0.097 (66.7%)"}, {"measurement": "Ka First order absorption rate constant, Mean (RSE %)", "setting": "[4]; [6]", "value": "0.094 (54.1%)"}, {"measurement": "Tlag Lag time for the first order absorption process, Mean (RSE %)", "setting": "[4]; [6]", "value": "8.61 (15.3%) hr"}, {"measurement": "V1 Volume of central compartment, Mean (RSE %)", "setting": "[4]; [6]", "value": "7726 (17.6%) mL"}, {"measurement": "V2 Volume of peripheral compartment, Mean (RSE %)", "setting": "[4]; [6]", "value": "261058 (57.3%) mL"}, {"measurement": "F Absolute plasma bioavailability following administration to occluded axilla, Mean (RSE %)", "setting": "[4]; PopPK, fraction", "value": "0.0019 (55.3%)"}, {"measurement": "bioavailability", "setting": "[4]; human, plasma, topical, 3.05 mg, occluded axilla, RSE 55.3%, read-out: estimated absolute plasma bioavailability", "value": 0.19, "unit": "%"}, {"measurement": "share of systemically available drug absorbed through a zero order process", "setting": "[4]; occluded axilla, RSE 66.7%", "value": 9.70, "unit": "%"}]}
{"smiles": "OC(c1ccccc1)(c1ccccc1)C12CC[N+](CCOCc3ccccc3)(CC1)CC2", "note": "[umeclidinium bromide]", "values": [{"measurement": "irritation potential", "setting": "[5]", "value": "low irritation potential"}]}
